For 39 compounds, EC50 results are on record in patent US8865756B2, “Inhibitors of HCV NS5A” (Presidio Pharmaceuticals, Inc., priority 2008, dated 2014).

This assay deals with HCV 1b_Huh-Luc/Neo-ET cell line persistently expressing a bicistronic genotype 1b replicon in Huh 7 cells. Briefly: HCV replicon assay (luciferase readout). Conditions: Hepatitis C virus, Huh-7, 72 h, read-out: Inhibition of HCV genotype 1b. In kind it is cell-based. In outline: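 EC50, determined repeatedly, comes from a four-parameter logistic fit of luciferase signal as percent of untreated control. Readout follows 72 h compound exposure, in triplicate, of the HCV 1b_Huh-Luc/Neo-ET replicon line.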

Molecules are shown by their SMILES.

In the case of `O=C(N[C@@H](C(=O)N1CCC[C@H]1c1ncc(-c2ccc(C#Cc3ccc(-c4cnc([C@@H]5CCCN5C(=O)[C@H](NC(=O)N5CCOCC5)c5ccccc5)[nH]4)cc3)cc2)[nH]1)c1ccccc1)N1CCOCC1` [Compound 248], the EC50 is less than 1 nM.

As to `C[C@H](NC(=O)[C@H](NC(=O)OC(C)(C)C)c1ccccc1)c1ncc(-c2ccc(C#Cc3ccc(-c4cnc([C@@H]5CCCN5C(=O)[C@H](NC(=O)OC(C)(C)C)c5ccccc5)[nH]4)cc3)cc2)[nH]1` [Compound 280], the EC50 was less than 1 nM.

As for `CNC(=O)N[C@@H](C(=O)N1CCC[C@H]1c1ncc(-c2ccc(C#Cc3ccc(-c4cnc([C@@H]5CCCN5C(=O)[C@H](NC(=O)NC)c5ccccc5)[nH]4)cc3)cc2)[nH]1)c1ccccc1` [Compound 162], the EC50 was less than 1 nM.

Take `COC(=O)N[C@@H](C(=O)N1CCC[C@H]1c1ncc(-c2ccc(C#Cc3ccc(-c4cnc([C@@H]5CCCN5C(=O)[C@H](NC(=O)N5CC[C@H](OC)C5)c5ccccc5)[nH]4)cc3)cc2)[nH]1)c1ccccc1` [Compound 272]: the EC50 is less than 1 nM.

Consider `COC(=O)N[C@@H](CC(=O)O)C(=O)N1CCC[C@H]1c1ncc(-c2ccc(C#Cc3ccc4nc([C@@H]5CCCN5C(=O)[C@H](CC(=O)O)NC(=O)OC)[nH]c4c3)cc2)[nH]1` [Compound 1061], for which the EC50 lay within 10 to 999 nM.

Consider `COC(=O)N[C@@H](C(=O)N1CCC[C@H]1c1ncc(-c2ccc(C#Cc3ccc4nc([C@@H]5CCCN5C(=O)[C@H](NC(=O)OC)c5ccccc5)[nH]c4c3)cc2)[nH]1)c1ccccc1` [Compound 800], for which the EC50 is less than 1 nM.

In the case of `COC(=O)N[C@@H](CC(C)C)C(=O)N1CCC[C@H]1c1ncc(-c2ccc(C#Cc3ccc(-c4cnc([C@@H]5CCCN5C(=O)[C@H](CC(C)C)NC(=O)OC)[nH]4)cc3)cc2)[nH]1` [Compound 961], the EC50 was less than 1 nM.

In the case of `COC(=O)N[C@H](C(=O)N1CCC[C@H]1c1nc(-c2ccc3cc(C#Cc4cnc([C@@H]5CCCN5C(=O)[C@H](NC(=O)OC)c5ccccc5)[nH]4)ccc3c2)c[nH]1)C(C)C` [Compound 1077], the EC50 is less than 1 nM.

On to `COC(=O)N[C@@H](C(=O)N1CCC[C@H]1c1ncc(C#Cc2ccc(-c3ccc(-c4cnc([C@@H]5CCCN5C(=O)[C@@H](c5ccccc5)N5CCOCC5)[nH]4)cc3)cc2)[nH]1)c1ccccc1` [Compound 758], for which the EC50 is less than 1 nM.

Turning to `COC(=O)N[C@H](C(=O)N1CCC[C@H]1c1ncc(-c2ccc(C#Cc3ccc(-c4cnc([C@@H]5CCCN5C(=O)[C@@H](c5ccccc5)N5CCOCC5)[nH]4)cc3)cc2)[nH]1)C(C)C` [Compound 987], the EC50 was less than 1 nM.

Turning to `COC(=O)N[C@H](C(=O)N1CCC[C@H]1c1ncc(-c2ccc(C#Cc3ccc4nc([C@@H]5CCCN5C(=O)[C@@H](NC(=O)OC)C(C)(C)C)[nH]c4c3)cc2)[nH]1)C(C)(C)C` [Compound 1041], the EC50 was less than 1 nM.

As for `C(#Cc1ccc2nc([C@@H]3CCCN3)[nH]c2c1)c1ccc(-c2cnc([C@@H]3CCCN3)[nH]2)cc1` [Compound 1035], the EC50 lay within 10 to 999 nM.

In the case of `COC(=O)N[C@H](C(=O)N1CCC[C@H]1c1ncc(-c2ccc(C#Cc3ccc(-c4cnc([C@@H]5CCCN5C(=O)[C@H](C(C)C)N(C)C)[nH]4)cc3)cc2)[nH]1)C(C)C` [Compound 953], the EC50 lay in the range of 1 to 9.9 nM.

Consider `CCN(CC)[C@@H](C(=O)N1CCC[C@H]1c1ncc(-c2ccc(C#Cc3ccc(-c4cnc([C@@H]5CCCN5C(=O)[C@H](NC(=O)OC)c5ccccc5)[nH]4)cc3)cc2)[nH]1)c1ccccc1` [Compound 175], for which the EC50 is less than 1 nM.

Take `O=C(NC[C@@H]1CCCN1C(=O)[C@H](NC(=O)C1CC1)c1ccccc1)c1ccc(C#Cc2ccc(-c3cnc([C@@H]4CCCN4C(=O)[C@H](NC(=O)C4CC4)c4ccccc4)[nH]3)cc2)cc1` [Compound 193]: the EC50 was less than 1 nM.

On to `O=C(N[C@@H](C(=O)N1CCC[C@H]1c1ncc(-c2ccc(C#Cc3ccc(-c4cnc([C@@H]5CCCN5C(=O)[C@H](NC(=O)N5CCC(O)CC5)c5ccccc5)[nH]4)cc3)cc2)[nH]1)c1ccccc1)N1CCC(O)CC1` [Compound 251], for which the EC50 was less than 1 nM.

Consider `COC(=O)N[C@H](C(=O)N[C@@H](C)c1ncc(-c2ccc(C#Cc3ccc4nc([C@H](C)NC(=O)[C@@H](NC(=O)OC)C(C)C)[nH]c4c3)cc2)[nH]1)C(C)C` [Compound 868], for which the EC50 is less than 1 nM.

Consider `COC(=O)N[C@@H](C(=O)N1CCC[C@H]1c1ncc(-c2ccc(C#Cc3ccc(-c4cnc([C@@H]5CCCN5C(=O)[C@H](NC(=O)N5CC[C@@H](O)C5)c5ccccc5)[nH]4)cc3)cc2)[nH]1)c1ccccc1` [Compound 268], for which the EC50 is less than 1 nM.

Consider `O=C(N[C@@H](C(=O)N1CCC[C@H]1c1ncc(-c2ccc(C#Cc3ccc(-c4cnc([C@@H]5CCCN5C(=O)[C@@H](c5ccccc5)N5CCCCC5)[nH]4)cc3)cc2)[nH]1)c1ccccc1)N1CCOCC1` [Compound 209], for which the EC50 was less than 1 nM.

Take `COC(=O)N[C@@H](C(=O)N1CCC[C@H]1c1ncc(-c2ccc(C#Cc3ccc(-c4cnc([C@@H]5CCCN5C(=O)[C@H]5CCCN5C)[nH]4)cc3)cc2)[nH]1)c1ccccc1` [Compound 187]: the EC50 is less than 1 nM.

For `COC(=O)N[C@H](C(=O)N1CC[C@H](O)[C@H]1c1ncc(-c2ccc(C#Cc3ccc4nc([C@@H]5CCCN5C(=O)[C@@H](NC(=O)OC)C(C)C)[nH]c4c3)cc2)[nH]1)C(C)C` [Compound 1068], the EC50 was less than 1 nM.

In the case of `C[C@@H](NC(=O)[C@@H]1CCCN1C(=O)[C@H](NC(=O)C1CC1)c1ccccc1)c1ccc(C#Cc2cnc([C@@H]3CCCN3C(=O)[C@H](NC(=O)C3CC3)c3ccccc3)[nH]2)cc1` [Compound 135], the EC50 was greater than 1000 nM.

For `CC(C)(C)OC(=O)N[C@@H](C(=O)N1CCC[C@H]1CNC(=O)c1ccc(C#Cc2ccc(-c3cnc([C@@H]4CCCN4C(=O)[C@H](NC(=O)OC(C)(C)C)c4ccccc4)[nH]3)cc2)cc1)c1ccccc1` [Compound 192], the EC50 fell in the range of 1 to 9.9 nM.

In the case of `COC(=O)N[C@@H](C(=O)N1CCC[C@H]1c1ncc(-c2ccc(C#Cc3ccc(-c4cnc([C@@H]5CCCN5C(=O)[C@H](NC(=O)OC)c5ccccc5)[nH]4)c(F)c3)cc2)[nH]1)c1ccccc1` [Compound 1013], the EC50 was less than 1 nM.

In the case of `COC(=O)N[C@H](C(=O)N1CCC[C@H]1c1ncc(-c2ccc(C#Cc3ccc(-c4cnc([C@H](C)NC(=O)[C@@H](C(C)C)N(C)C)[nH]4)cc3)cc2)[nH]1)C(C)C` [Compound 982], the EC50 was 10 to 999 nM.

As for `COC(=O)N[C@H](CC(=O)N1CCC[C@H]1c1ncc(-c2ccc(C#Cc3ccc4nc([C@@H]5CCCN5C(=O)C[C@@H](NC(=O)OC)C(C)C)[nH]c4c3)cc2)[nH]1)C(C)C` [Compound 1065], the EC50 fell in the range of 10 to 999 nM.

With `COC(=O)N[C@@H](C(=O)N1CCC[C@H]1c1ncc(-c2ccc(C#Cc3ccc(-c4cnc([C@@H]5CCCN5C(=O)[C@H](NC(=O)N5CCC(C)(O)CC5)c5ccccc5)[nH]4)cc3)cc2)[nH]1)c1ccccc1` [Compound 273], the EC50 was less than 1 nM.

In the case of `C[C@@H](NC(=O)[C@@H]1CCCN1C(=O)[C@H](NC(=O)OC(C)(C)C)c1ccccc1)c1ccc(C#Cc2cnc([C@@H]3CCCN3C(=O)[C@H](NC(=O)OC(C)(C)C)c3ccccc3)[nH]2)cc1` [Compound 129], the EC50 fell in the range of 10 to 999 nM.

As to `COC(=O)N[C@@H](C(=O)N1CCC[C@H]1c1ncc(-c2ccc(C#Cc3ccc(-c4cnc([C@@H]5CCCN5C(=O)[C@@H]5CCCO5)[nH]4)cc3)cc2)[nH]1)c1ccccc1` [Compound 186], the EC50 is less than 1 nM.

As for `COC(=O)N[C@@H](C(=O)N1CCC[C@H]1c1ncc(-c2ccc(C#Cc3ccc(-c4cnc([C@@H]5CCCN5C(=O)[C@H](NC(=O)N5CCOCC5)c5ccccc5)[nH]4)cc3)cc2)[nH]1)c1ccccc1` [Compound 224], the EC50 is less than 1 nM.

For the compound `CC(C)[C@H](NC(=O)N1CCC(C)(O)CC1)C(=O)N1CCC[C@H]1c1ncc(-c2ccc(C#Cc3ccc(-c4cnc([C@@H]5CCCN5C(=O)[C@@H](NC(=O)N5CCC(C)(O)CC5)C(C)C)[nH]4)cc3)cc2)[nH]1` [Compound 966], the EC50 fell in the range of 10 to 999 nM.

Take `COC(=O)N[C@@H](C(=O)N1CCC[C@H]1c1ncc(-c2ccc(C#Cc3ccc(-c4cnc([C@@H]5CCCN5C(=O)C5CCN(C)CC5)[nH]4)cc3)cc2)[nH]1)c1ccccc1` [Compound 182]: the EC50 was less than 1 nM.

As to `CN(C)[C@@H](C(=O)N1CCC[C@H]1c1ncc(C#Cc2ccc(C#Cc3cnc([C@@H]4CCCN4C(=O)[C@@H](c4ccccc4)N(C)C)[nH]3)cc2)[nH]1)c1ccccc1` [Compound 305], the EC50 is less than 1 nM.

Consider `O=C(N[C@@H](C(=O)N1CCC[C@H]1c1cc(-c2ccc(C#Cc3ccc(-c4cnc([C@@H]5CCCN5C(=O)[C@H](NC(=O)C5CC5)c5ccccc5)[nH]4)cc3)cc2)n[nH]1)c1ccccc1)C1CC1` [Compound 212], for which the EC50 is less than 1 nM.

In the case of `COC(=O)N[C@@H](C(=O)N1CCC[C@H]1c1ncc(-c2ccc(C#Cc3ccc(-c4cnc([C@@H]5CCCN5C(=O)[C@@H](c5ccccc5)N5CCCCC5)[nH]4)cc3)cc2)[nH]1)c1ccccc1` [Compound 188], the EC50 was less than 1 nM.

For `COC(=O)N[C@@H](C(=O)N1CCC[C@H]1c1nc2ccc(C#Cc3ccc4nc([C@@H]5CCCN5C(=O)[C@H](NC(=O)OC)C(C)C)[nH]c4c3)cc2[nH]1)C(C)C` [Compound 853], the EC50 is less than 1 nM.

Regarding `COC(=O)N[C@@H](C(=O)N1CCC[C@H]1c1ncc(-c2ccc(C#Cc3ccc(-c4cnc([C@@H]5CCCN5C(=O)[C@H](NC(=O)N5CCC[C@H]5CO)c5ccccc5)[nH]4)cc3)cc2)[nH]1)c1ccccc1` [Compound 255], the EC50 is less than 1 nM.

As to `COC(=O)N[C@@H](C(=O)N1CCC[C@H]1c1cc(-c2ccc(C#Cc3ccc(-c4cnc([C@@H]5CCCN5C(=O)[C@H](NC(=O)OC)c5ccccc5)[nH]4)cc3)cc2)n[nH]1)c1ccccc1` [Compound 219], the EC50 was less than 1 nM.

Take `COC(=O)N[C@H](C(=O)N1CCC[C@H]1c1nc2c([nH]1)-c1ccc(C#Cc3ccc(-c4cnc([C@@H]5CCCN5C(=O)[C@@H](NC(=O)OC)C5CCOCC5)[nH]4)cc3)cc1CCC2)C(C)C` [Compound 1097]: the EC50 is less than 1 nM.
